Values of other authors, collected in patent US10634592B2, “Process for microextraction and detection of an analyte” (KING FAHD UNIVERSITY OF PETROLEUM AND MINERALS, priority 2015, dated 2020).

Experiments:
[1] = system: cellular glutathione levels; details: prior to cytotoxic effects
[2] = octanol-water partition coefficient

SMILES	Effect on cellular glutathione levels [1]	log Kow [2]
CC(=O)C(Cl)Cl [DCP, 1,1-dichloro-2-propanone]	reduce cellular glutathione levels	0.20
CC(=O)C(Cl)(Cl)Cl [TCP, 1,1,1-trichloro-2-propanone]	–	1.12
ClC(Cl)Cl [TCM, trichloromethane]	–	1.97
ClC(Cl)Br [BDCM, bromodichloromethane]	–	1.88
BrC(Br)Br [TBM, tribromomethane]	–	2.38
ClC(Br)Br [DBCM, dibromochloromethane]	–	2.08
